These results are taken from US20250333405A1, “ANTAGONISTS OF GPR39 PROTEIN” (VASOCARDEA, INC., priority 2024, published 2025).

The experiment deals with T1, human GPR39 receptor (Homo sapiens, UniProt O43194).
T1 construct: PC3 Cells, Expressing the Endogenous Human GPR39 Receptor; endogenous in cells; host or cells: PC3 (human prostate adenocarcinoma) cells
T1 sequence (O43194 1-453): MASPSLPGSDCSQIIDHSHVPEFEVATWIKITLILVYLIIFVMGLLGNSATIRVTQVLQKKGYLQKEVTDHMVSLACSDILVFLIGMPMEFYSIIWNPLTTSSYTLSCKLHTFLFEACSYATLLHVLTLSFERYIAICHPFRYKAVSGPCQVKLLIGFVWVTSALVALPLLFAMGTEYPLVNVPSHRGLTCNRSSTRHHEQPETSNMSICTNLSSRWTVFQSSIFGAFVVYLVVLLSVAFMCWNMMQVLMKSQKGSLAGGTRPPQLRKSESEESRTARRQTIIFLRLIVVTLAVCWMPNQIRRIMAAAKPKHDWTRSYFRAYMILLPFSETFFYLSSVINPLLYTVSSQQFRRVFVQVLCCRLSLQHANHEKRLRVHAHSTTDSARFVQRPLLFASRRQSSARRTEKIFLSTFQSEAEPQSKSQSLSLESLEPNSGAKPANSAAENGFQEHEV
The experiment in a line: Intracellular calcium response (FLIPR, Calcium-6) in PC3 cells, antagonism of agonist C3 (TC-G 1008) at EC90. The experiment is classed as cell-based. The following applies: functional pKi (-Log10Ki) by modified Cheng-Prusoff from IC50; PC3 cells endogenously expressing human GPR39; 30 μM ZnCl2; agonist C3 (TC-G 1008) at EC90 1.5 μM; read-out: fpKi activity. Summed up: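 Calcium-6-loaded cells in HEPES buffer pH 7.4 were given compound with 30 μM final ZnCl2 (0.32% DMSO) for 10 min, then challenged with 1.5 μM C3. Baseline-subtracted peak fluorescence expressed as % inhibition of the C3 response; IC50 from four-parameter logistic fit, reported as binned fpKi.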

Some results are limits rather than exact numbers.

Consider `CN1CCN(S(=O)(=O)c2ccc(NC(=O)C3CC3)cc2N2CCCC2)C(c2ccccc2)C1` (centres unmarked) [Example 102, N-[4-(4-methyl-2-phenylpiperazin-1-yl)sulfonyl-3-pyrrolidin-1-ylphenyl]cyclopropanecarboxamide], for which the Ki was 1260 to 6310 nM.

In the case of `CN1CCN(S(=O)(=O)c2ccc(NC(=O)C3CC3)cc2N2CCCC2)CC1` [Example 103, N-[4-(4-methylpiperazin-1-yl)sulfonyl-3-pyrrolidin-1-ylphenyl]cyclopropanecarboxamide], the Ki was in the range of 1260 to 6310 nM. Turning to `CN(C1CCN(C(=O)c2ccc(NC(=O)C3CC3)cc2N2CCCC2)CC1)S(C)(=O)=O` [Example 104, N-[4-[4-[methyl(methylsulfonyl)amino]piperidine-1-carbonyl]-3-pyrrolidin-1-ylphenyl]cyclopropanecarboxamide], the Ki fell in the range of 1260 to 6310 nM. On to `CS(=O)(=O)NC1CCN(C(=O)c2ccc(NC(=O)C3CC3)cc2N2CCCC2)CC1` [Example 105, N-[4-[4-(methanesulfonamido)piperidine-1-carbonyl]-3-pyrrolidin-1-ylphenyl]cyclopropanecarboxamide], for which the Ki was greater than 6310 nM.

With `O=C(c1ccc(-c2nnc[nH]2)cc1N1CCCC1)N1CCC(C(F)(F)F)CC1` [Example 112, [2-pyrrolidin-1-yl-4-(4H-1,2,4-triazol-3-yl)phenyl]-[4-(trifluoromethyl)piperidin-1-yl]methanone], the Ki is 63.1 to 251 nM. As for `CN1CCN(C(=O)c2cc3[nH]c(C4CC4)nc3cc2N2CCCC2)C(c2ccccc2)C1` (centres unmarked) [Example 113, (2-cyclopropyl-6-pyrrolidin-1-yl-3H-benzimidazol-5-yl)-(4-methyl-2-phenylpiperazin-1-yl)methanone], the figure is greater than 6310 nM; as for `Cc1nc2cc(N3CCCC3)c(C(=O)N3CCN(C)CC3c3ccccc3)cc2[nH]1` (centres unmarked) [Example 114, (4-methyl-2-phenylpiperazin-1-yl)-(2-methyl-6-pyrrolidin-1-yl-3H-benzimidazol-5-yl)methanone], greater than 6310 nM; as for `CN1CCN(C(=O)c2cc(F)c(NC(=O)C3CC3)nc2N2CCCC2)C(c2ccccc2)C1` (centres unmarked) [Example 115, N-[3-fluoro-5-(4-methyl-2-phenylpiperazine-1-carbonyl)-6-pyrrolidin-1-ylpyridin-2-yl]cyclopropanecarboxamide], 1260 to 6310 nM. Consider `O=C(Nc1ccc(C(=O)N2CCS(=O)(=O)CC2)c(-n2ccc(C(F)F)n2)c1)C1CC1` [Example 116, N-[3-[3-(difluoromethyl)pyrazol-1-yl]-4-(1,1-dioxo-1,4-thiazinane-4-carbonyl)phenyl]cyclopropanecarboxamide], for which the Ki fell in the range of 63.1 to 251 nM. With `N#Cc1ccn(-c2cc(NC(=O)C3CC3)ccc2C(=O)N2CCS(=O)(=O)CC2)n1` [Example 117, N-[3-(3-cyanopyrazol-1-yl)-4-(1,1-dioxo-1,4-thiazinane-4-carbonyl)phenyl]cyclopropanecarboxamide], the Ki is 1260 to 6310 nM. Regarding `CC(C)(C)c1ccn(-c2cc(NC(=O)C3CC3)ccc2C(=O)N2CCS(=O)(=O)CC2)n1` [Example 118, N-[3-(3-tert-butylpyrazol-1-yl)-4-(1,1-dioxo-1,4-thiazinane-4-carbonyl)phenyl]cyclopropanecarboxamide], the Ki is no more than 50.1 nM. Consider `O=C(Nc1ccc(C(=O)N2CCC(F)(F)CC2)c(-n2ccc(C(F)(F)F)n2)c1)C1CC1` [Example 119, N-[4-(4,4-difluoropiperidine-1-carbonyl)-3-[3-(trifluoromethyl)pyrazol-1-yl]phenyl]cyclopropanecarboxamide], for which the Ki was no more than 50.1 nM. For the compound `Cc1nnc(-c2ccc(C(=O)N3CCC(C#N)CC3)c(-c3ccn(C(C)C)n3)c2)[nH]1` [Example 120, 1-[2-(1-isopropylpyrazol-3-yl)-4-(5-methyl-4H-1,2,4-triazol-3-yl)benzoyl]piperidine-4-carbonitrile], the Ki is 316 to 1000 nM. `Cc1nnc(-c2ccc(C(=O)N3CCC(C(F)(F)F)CC3)c(-n3ccc(C4CC4)n3)c2)[nH]1` [Example 121, [2-(3-cyclopropylpyrazol-1-yl)-4-(5-methyl-4H-1,2,4-triazol-3-yl)phenyl]-[4-(trifluoromethyl)piperidin-1-yl]methanone]: the Ki is no more than 50.1 nM. Regarding `Cc1nnc(-c2ccc(C(=O)N3CCC(F)(F)CC3)c(-n3ccc(C(C)(C)C)n3)c2)[nH]1` [Example 122, [2-(3-tert-butylpyrazol-1-yl)-4-(5-methyl-4H-1,2,4-triazol-3-yl)phenyl]-(4,4-difluoropiperidin-1-yl)methanone], the Ki is no more than 50.1 nM. Consider `O=C(Nc1ccc(C(=O)N2CCS(=O)(=O)CC2)c(N2CCCC2=O)c1)C1CC1` [Example 123, N-[4-(1,1-dioxo-1,4-thiazinane-4-carbonyl)-3-(2-oxopyrrolidin-1-yl)phenyl]cyclopropanecarboxamide], for which the Ki was greater than 6310 nM. Regarding `CN1CCN(C(=O)c2ccc(NC(=O)C3CC3)cc2N2CCCC2=O)C(c2ccccc2)C1` (centres unmarked) [Example 124, N-[4-(4-methyl-2-phenylpiperazine-1-carbonyl)-3-(2-oxopyrrolidin-1-yl)phenyl]cyclopropanecarboxamide], the Ki was greater than 6310 nM.
